± gives the expanded uncertainty stated by the source.
How the values were obtained:
[1] = Molar enthalpy of transition or fusion; settings: Crystal; Adiabatic calorimetry
[2] = molar heat capacity at constant pressure; settings: 101.33 kPa, Vacuum adiabatic calorimetry
[3] = Crystal; Adiabatic calorimetry

c1ccc(CSSCc2ccccc2)cc1 [1,4-diphenyl-2,3-dithiabutane]
Settings | Molar enthalpy of transition or fusion [kcal/mol] | Triple point temperature [K]
[1] | 10.75 ± 0.012 | –
[3] | – | 341.72 ± 0.17

[2]
Settings | molar heat capacity at constant pressure [J/K/mol]
80 K, Crystal | 108.82 ± 0.47
80.3 K, Crystal | 108.33 ± 0.47
84.06 K, Crystal | 111.79 ± 0.48
85 K, Crystal | 111.44 ± 0.48
87.01 K, Crystal | 113.48 ± 0.49
90 K, Crystal | 116.01 ± 0.52
90.01 K, Crystal | 116.34 ± 0.52
92.93 K, Crystal | 118.76 ± 0.52
95 K, Crystal | 122.1 ± 0.54
95.91 K, Crystal | 122.02 ± 0.54
99.41 K, Crystal | 127.8 ± 0.56
100 K, Crystal | 129.33 ± 0.56
103.24 K, Crystal | 135.01 ± 0.59
105 K, Crystal | 137.39 ± 0.6
106.95 K, Crystal | 141.28 ± 0.61
110 K, Crystal | 145.99 ± 0.63
110.69 K, Crystal | 147.39 ± 0.64
114.47 K, Crystal | 153.91 ± 0.67
115 K, Crystal | 154.9 ± 0.67
118.16 K, Crystal | 160.1 ± 0.69
120 K, Crystal | 163.94 ± 0.71
121.87 K, Crystal | 169.57 ± 0.73
125 K, Crystal | 172.98 ± 0.74
125.68 K, Crystal | 176.87 ± 0.76
129.35 K, Crystal | 179.77 ± 0.77
130 K, Crystal | 181.89 ± 0.77
132.96 K, Crystal | 185.92 ± 0.79
135 K, Crystal | 190.59 ± 0.81
136.61 K, Crystal | 192.1 ± 0.81
140 K, Crystal | 199.02 ± 0.85
140.35 K, Crystal | 197.02 ± 0.84
144.38 K, Crystal | 205.28 ± 0.87
145 K, Crystal | 207.16 ± 0.88
147.99 K, Crystal | 211.7 ± 0.9
150 K, Crystal | 214.97 ± 0.91
151.7 K, Crystal | 217.62 ± 0.92
155 K, Crystal | 222.48 ± 0.94
155.35 K, Crystal | 222.51 ± 0.94
158.92 K, Crystal | 228.58 ± 0.96
160 K, Crystal | 229.68 ± 0.96
162.44 K, Crystal | 233.74 ± 0.98
165 K, Crystal | 236.6 ± 1
165.91 K, Crystal | 238.97 ± 1
169.42 K, Crystal | 243.63 ± 1
170 K, Crystal | 243.29 ± 1
172.99 K, Crystal | 248.31 ± 1
175 K, Crystal | 249.78 ± 1
176.5 K, Crystal | 252.64 ± 1.1
179.96 K, Crystal | 257.05 ± 1.1
180 K, Crystal | 256.1 ± 1.1
183.38 K, Crystal | 260.66 ± 1.1
185 K, Crystal | 262.31 ± 1.1
186.84 K, Crystal | 265.34 ± 1.1
190 K, Crystal | 268.46 ± 1.1
190.36 K, Crystal | 269.4 ± 1.1
193.83 K, Crystal | 273.35 ± 1.1
195 K, Crystal | 274.58 ± 1.1
197.26 K, Crystal | 277.29 ± 1.2
200 K, Crystal | 280.71 ± 1.2
200.65 K, Crystal | 280.28 ± 1.2
204 K, Crystal | 284.27 ± 1.2
205 K, Crystal | 286.91 ± 1.2
207.4 K, Crystal | 288.01 ± 1.2
210 K, Crystal | 293.18 ± 1.2
210.85 K, Crystal | 291.95 ± 1.2
214.25 K, Crystal | 296.05 ± 1.2
215 K, Crystal | 299.57 ± 1.2
217.6 K, Crystal | 300.68 ± 1.3
220 K, Crystal | 306.1 ± 1.3
220.9 K, Crystal | 305.02 ± 1.3
224.17 K, Crystal | 310.55 ± 1.3
225 K, Crystal | 312.77 ± 1.3
227.41 K, Crystal | 316.71 ± 1.3
230 K, Crystal | 319.61 ± 1.3
230.64 K, Crystal | 324.45 ± 1.3
234.1 K, Crystal | 331.98 ± 1.4
235 K, Crystal | 326.59 ± 1.4
237.58 K, Crystal | 333.36 ± 1.4
240 K, Crystal | 333.73 ± 1.4
240.9 K, Crystal | 338.86 ± 1.4
244.3 K, Crystal | 341.63 ± 1.4
245 K, Crystal | 341.01 ± 1.4
247.7 K, Crystal | 342.44 ± 1.4
250 K, Crystal | 348.41 ± 1.4
251 K, Crystal | 347.57 ± 1.4
254.37 K, Crystal | 353.48 ± 1.5
255 K, Crystal | 355.91 ± 1.5
257.79 K, Crystal | 359.5 ± 1.5
260 K, Crystal | 363.48 ± 1.5
261.22 K, Crystal | 363.54 ± 1.5
264.69 K, Crystal | 369.67 ± 1.5
265 K, Crystal | 371.1 ± 1.5
268.17 K, Crystal | 374.81 ± 1.6
270 K, Crystal | 378.73 ± 1.6
271.64 K, Crystal | 381.1 ± 1.6
275 K, Crystal | 386.35 ± 1.6
275.11 K, Crystal | 386.26 ± 1.6
278.65 K, Crystal | 391.99 ± 1.6
280 K, Crystal | 393.93 ± 1.6
282.26 K, Crystal | 396.6 ± 1.6
285 K, Crystal | 401.44 ± 1.7
285.84 K, Crystal | 402.1 ± 1.7
289.39 K, Crystal | 410.38 ± 1.7
290 K, Crystal | 408.86 ± 1.7
292.9 K, Crystal | 417.2 ± 1.7
295 K, Crystal | 416.2 ± 1.7
296.45 K, Crystal | 417.2 ± 1.7
298.15 K, Crystal | 420.77 ± 1.7
299.98 K, Crystal | 422.24 ± 1.7
300 K, Crystal | 423.44 ± 1.8
303 K, Crystal | 427.75 ± 1.8
303.49 K, Crystal | 427.76 ± 1.8
307 K, Crystal | 437.99 ± 1.8
310.49 K, Crystal | 432.45 ± 1.8
313.97 K, Crystal | 443.61 ± 1.8
317.47 K, Crystal | 440.2 ± 1.8
320.92 K, Crystal | 443.39 ± 1.8
324.15 K, Crystal | 448.33 ± 1.9
327.24 K, Crystal | 479.87 ± 2
330.68 K, Crystal | 494.5 ± 2.1
334.08 K, Crystal | 565.94 ± 2.6
337.09 K, Crystal | 842.59 ± 6.7
339.29 K, Crystal | 2123.3 ± 32
340.75 K, Crystal | 6689.9 ± 160
344.92 K, Liquid | 1138.3 ± 43
350.93 K, Liquid | 545.43 ± 2.5
355 K, Liquid | 545.41 ± 2.2
355.68 K, Liquid | 550.14 ± 2.3
359.31 K, Liquid | 554.64 ± 2.3
360 K, Liquid | 555.11 ± 2.3
362.99 K, Liquid | 559.12 ± 2.3
365 K, Liquid | 561.67 ± 2.3
366.65 K, Liquid | 562.71 ± 2.3
370 K, Liquid | 564.76 ± 2.3
370.29 K, Liquid | 565.83 ± 2.3
373.91 K, Liquid | 569.68 ± 2.4
375 K, Liquid | 580.96 ± 2.4
377.39 K, Liquid | 643.17 ± 2.7
